Literature values, collected in patent US20030109488A1, “Methods for treating dry eye” (Alcon, Inc., priority 2001, published 2003).

Tested on: human conjunctival epithelial cells
Conditions: background statement, no data given

CCCCC[C@H](O)/C=C/C=C\C/C=C\C/C=C\CCCC(=O)O [15-HETE]
secretion of mucin-1 (MUC-1): increase the secretion of mucin-1 (MUC-1)
